How the values were obtained:
RAW264.7 [1] = test: Antiinflammatory activity in mouse RAW264.7 cells assessed as inhibition of LPS-stimulated nitric oxide production after 24 hrs by Griess method; type: functional, cell-based; settings: RAW264.7, 24 h
RAW264.7 [2] = test: Cytotoxicity against mouse RAW264.7 cells assessed as cell viability at IC50 by MTT assay; type: cell-based
RAW264.7 [3] = test: Potency index, ratio of aminoguanidine IC50 to compound IC50 for mouse RAW264.7 cells; type: functional

IC50 (RAW264.7 [1]) [µM] | Compound | Activity (RAW264.7 [2]) | Ratio IC50 (RAW264.7 [3])
10.7 | CC(C)=CCC1Cc2c(cc(O)c3c2O[C@H](c2ccc(O)cc2O)CC3=O)OC1(C)C (stereo partly specified) | Non-toxic | 
16.1 | C=CC(C)(C)c1c(OC)cc(O)c2c(=O)c3c(CC=C(C)C)c(O)c(O)cc3oc12 [CUDRAXANTHONE D] | Non-toxic | 
26.6 | C=C(C)C(CC=C(C)C)Cc1c(O)cc(OC)c2c1O[C@H](c1ccc(O)cc1O)CC2=O (stereo partly specified) [KURARINONE] | Non-toxic | 
> 50 | Oc1ccc([C@@H]2c3c(O)cc(O)cc3[C@H]3[C@H](c4ccc(O)cc4)c4c(O)cc(O)cc4[C@@H]23)cc1 [PALLIDOL] | Non-toxic | 
26.3 | CC(C)=CCc1c(O)cc(O)c2c1OC(c1ccc(O)cc1)CC2=O (stereo unspecified) [SOPHORAFLAVANONE B] | Non-toxic | 
10.9 | C=C(C)[C@H](CC=C(C)C)Cc1c(O)cc(O)c2c1O[C@H](c1ccc(O)cc1O)CC2=O [SOPHORAFLAVANONE G] | Non-toxic | 
> 50 | OC[C@H]1O[C@@H](Oc2ccc3c(c2)OC[C@H]2c4cc5c(cc4O[C@@H]32)OCO5)[C@H](O)[C@@H](O)[C@@H]1O [TRIFOLIRHIZIN] | Non-toxic | 

The remaining lines, values behind:

Compound | IC50 (RAW264.7 [1]) [µM] | Activity (RAW264.7 [2]) | Ratio IC50 (RAW264.7 [3])
C=C(C)C(CCC(C)(C)O)Cc1c2c(c(O)c3c1O[C@H](c1ccc(O)cc1)[C@H]3c1cc(O)cc(O)c1)C(=O)C[C@@H](c1ccc(O)cc1O)O2 (stereo partly specified) | 32.7 | Non-toxic | 
CC1(C)CCC(Cc2c3c(c(O)c4c2O[C@H](c2ccc(O)cc2)[C@H]4c2cc(O)cc(O)c2)C(=O)C[C@@H](c2ccc(O)cc2O)O3)C(C)(C)O1 (stereo partly specified) | 27.8 | Non-toxic | 
C=C(C)C(CC=C(C)C)Cc1c2c(c(O)c3c1O[C@@H](c1ccc(O)cc1)[C@H]3c1cc(O)cc(O)c1)C(=O)C[C@@H](c1ccc(O)cc1O)O2 (stereo partly specified) | 15.9 | Non-toxic | 
CC(C)=CCc1c2c(c(O)c3c1O[C@H](c1ccc(O)cc1)[C@H]3c1cc(O)cc(O)c1)C(=O)C[C@@H](c1ccc(O)cc1)O2 | 19 | Non-toxic | 
CC(C)=CCc1c2c(c(O)c3c1O[C@H](c1ccc(O)cc1)[C@H]3c1cc(O)cc(O)c1)C(=O)C[C@@H](c1ccc(O)cc1O)O2 | 7.3 | Non-toxic | 3
N=C(N)NN [PIMAGEDINE] | 20.6 |  | 
